Earlier results, collected in patent US20220098283A1, “ACE2- and TMPRSS2-Targeted Compositions and Methods for Treating COVID-19” (priority 2020, published 2022).
Like-named read-outs stand apart in the source and are kept apart here.

Biological target: hACE2 (Homo sapiens, UniProt Q9BYF1)
Details: 100 μM angiotensin II, 37° C., 2 hours

hACE2, sequence (Q9BYF1 18-805): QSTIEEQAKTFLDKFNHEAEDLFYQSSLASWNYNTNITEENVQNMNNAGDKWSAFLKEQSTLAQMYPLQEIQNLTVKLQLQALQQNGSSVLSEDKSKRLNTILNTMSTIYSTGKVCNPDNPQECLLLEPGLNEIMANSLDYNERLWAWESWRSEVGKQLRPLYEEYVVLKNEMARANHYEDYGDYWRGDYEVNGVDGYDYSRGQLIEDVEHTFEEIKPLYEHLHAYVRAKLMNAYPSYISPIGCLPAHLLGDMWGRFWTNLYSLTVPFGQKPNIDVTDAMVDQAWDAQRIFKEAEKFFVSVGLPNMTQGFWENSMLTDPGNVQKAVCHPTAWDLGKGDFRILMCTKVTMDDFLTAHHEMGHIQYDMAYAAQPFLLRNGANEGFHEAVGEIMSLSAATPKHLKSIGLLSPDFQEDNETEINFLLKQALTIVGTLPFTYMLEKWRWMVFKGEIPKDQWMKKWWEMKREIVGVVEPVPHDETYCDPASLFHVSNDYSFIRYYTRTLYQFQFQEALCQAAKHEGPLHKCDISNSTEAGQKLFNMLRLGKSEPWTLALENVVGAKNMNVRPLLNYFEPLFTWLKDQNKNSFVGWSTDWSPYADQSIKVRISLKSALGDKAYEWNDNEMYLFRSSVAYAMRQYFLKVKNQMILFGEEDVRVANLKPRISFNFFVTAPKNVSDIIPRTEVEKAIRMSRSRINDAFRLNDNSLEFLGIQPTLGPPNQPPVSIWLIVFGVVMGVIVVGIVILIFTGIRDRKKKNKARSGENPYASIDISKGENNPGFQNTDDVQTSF

| Compound | inhibition of hACE2 activity (angiotensin II cleavage) (inhibitor 10 mM) | inhibition of hACE2 activity (angiotensin II cleavage) (inhibitor 100 μM) |
| --- | --- | --- |
| O=C(O)CN(CCN(CC(=O)O)CC(=O)O)CC(=O)O [EDTA] | inhibits hACE2 activity |  |
| O=C(O)CC(Cc1ccccc1)C(=O)O (centres unmarked) [benzyl succinate] |  | none of lisinopril, captopril, enalaprilat, and benzyl succinate (a carboxypeptidase A inhibitor) inhibits hACE2 activity |
